According to patent US8138168B1 (Takeda Pharmaceutical Company Limited, priority 2007, dated 2012):

Molecular target: T1, Recombinant human renin (Homo sapiens, UniProt P00797)
T1 construct: isolate the active form (residues 67-406); made in house; host or cells: FreeStyle 293-F cells (transient expression of pcDNA3.1(+)/hREN)
T1 sequence (P00797 67-406): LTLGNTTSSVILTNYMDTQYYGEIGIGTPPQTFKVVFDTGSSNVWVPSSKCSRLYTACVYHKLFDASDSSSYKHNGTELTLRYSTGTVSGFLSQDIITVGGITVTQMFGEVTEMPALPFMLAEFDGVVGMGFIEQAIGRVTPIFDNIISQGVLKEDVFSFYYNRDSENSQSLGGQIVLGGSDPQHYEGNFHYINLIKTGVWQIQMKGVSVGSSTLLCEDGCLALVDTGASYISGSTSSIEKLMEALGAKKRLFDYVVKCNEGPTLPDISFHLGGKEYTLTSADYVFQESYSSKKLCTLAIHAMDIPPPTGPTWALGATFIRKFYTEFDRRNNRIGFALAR
Test: In vitro enzymatic activity assay of renin inhibitors (fluorogenic peptide substrate)
Assay type: biochemical
Conditions: isomers separated by preparative SFC; more or less active isomer as renin inhibitor
Method: Test compounds in varying concentrations may be reacted with recombinant human renin in the presence of substrate, e.g., QXL520-γ-Abu-[…](HiLyteFluo488)-Arg-OH (Anaspec, San Jose, Calif.). […] Inhibition constants (IC50) may be calculated by non-linear curve fitting of the compound concentrations and fluorescence intensities to the standard IC50 equation.
Solutions of test compounds in varying concentrations mM final concentration) are prepared in dimethyl sulfoxide (DMSO) and then diluted into assay buffer comprising 50 mM Hepes, 1 mM EDTA, 1 mM DTT, 0.1 mg/mL BSA, 0.01% Brij35, pH 7.4. Alternatively, the assay can be performed with a high BSA concentration, wherein the buffer contains an additional 2% BSA.
Recombinant human renin (3 nM final concentration) is added to the dilutions and pre-incubated with the compounds for 10 minutes at 37° C. […] After pre-incubation, the reaction is initiated with of substrate QXL520-γ-Abu-[…](HiLyteFluo488)-Arg-OH (Anaspec, San Jose, Calif.). The final DMSO in the assay is 5%. The total volume of the reaction mixture is 20 μL, which can be placed on Greiner 384-well small volume plates.
The fluorescence intensity is determined upon the addition of substrate and determined again after incubation at 37° C. for one hour. The fluorescence intensity of a blank (no inhibition) using vehicle alone is also determined. Renin activity is linearly proportional to the change in fluorescence observed (final-initial).

Cc1nc2ccccc2n1[C@@H]1CCCN(C(=O)C[C@H](N)Cc2ccc3ccccc3c2)C1 [Compound 245, (R)-3-amino-1((R)-3-(2-methyl-1H-benzo[d]imidazol-1-yl)piperidin-1-yl)-4-(naphthalen-2-yl)butan-1-one] was tested, and the “Eutomer / distomer designation of the separated stereoisomers” value was “Distomer”.
With Cc1nc2ccccc2n1[C@H]1CCCN(C(=O)C[C@H](N)Cc2ccc3ccccc3c2)C1 [Compound 244, (R)-3-amino-1-((S)-3-(2-methyl-1H-benzo[d]imidazol-1-yl)piperidin-1-yl)-4-(naphthalen-2-yl)butan-1-one] the “Eutomer / distomer designation of the separated stereoisomers” value was “Eutomer”.

Same assay, conditions: read-out: IC50 of Exemplified Compounds Against Renin

COCCCn1c([C@@H]2CCCN(C(=O)[C@@H]3CN(C(=O)Nc4ccc(Cl)cc4)C[C@H]3N)C2)nc2ccccc21 [Compound 388, (3S,4R)-3-amino-N-(4-chlorophenyl)-4-((R)-3-(1-(3-methoxypropyl)-1H-benzo[d]imidazol-2-yl)piperidine-l-carbonyl)pyrrolidine-1-carboxamide] and COCCCn1c([C@@H]2CCCN(C(=O)[C@@H]3CN(C(=O)c4ccccc4)C[C@H]3N)C2)nc2ccccc21 [Compound 385, ((3R,4S)-4-amino-1-benzoylpyrrolidin-3-yl)((R)-3-(1-(3-methoxypropyl)-1H-benzo[d]imidazol-2-yl)piperidin-1-yl)methanone] cannot be ordered by IC50: > 1000 nM for the first, > 1000 nM for the second.

COCCCn1c([C@@H]2CCCN(C(=O)C[C@H](N)CNC(=O)NCCc3cc(OC)ccc3OC)C2)nc2ccccc21 [Compound 322, 1-((S)-2-amino-4-((R)-3-(1-(3-methoxypropyl)-1H-benzo[d]imidazol-2-yl)piperidin-1-yl)-4-oxobutyl)-3-(2,5-dimethoxyphenethyl)urea] and COCCCn1c([C@@H]2CCCN(C(=O)C[C@H](N)CNC(=O)c3ccc(C)c(C)c3)C2)nc2ccccc21 [Compound 293, N-((S)-2-amino-4-((R)-3-(1-(3-methoxypropyl)-1H-benzo[d]imidazol-2-yl)piperidin-1-yl)-4-oxobutyl)-3,4-dimethylbenzamide] fall in the same range of IC50: 100 to 1000 nM for the first, 100 to 1000 nM for the second.

COCCCn1c([C@@H]2CCCN(C(=O)[C@@H]3CN(C(=O)c4cccc5ccccc45)C[C@H]3N)C2)nc2ccccc21 [Compound 376, ((3R,4S)-1-(1-naphthoyl)-4-aminopyrrolidin-3-yl)((R)-3-(1-(3-methoxypropyl)-1H-benzo[d]imidazol-2-yl)piperidin-1-yl)methanone] and COCCCn1c([C@@H]2CCCN(C(=O)[C@@H]3CN(S(=O)(=O)c4c(C)cccc4Cl)C[C@H]3N)C2)nc2ccccc21 [Compound 359, ((3R,4S)-4-amino-1-(2-chloro-6-methylphenylsulfonyl)pyrrolidin-3-yl)((R)-3-(1-(3-methoxypropyl)-1H-benzo[d]imidazol-2-yl)piperidin-1-yl)methanone] fall in the same range of IC50: 100 to 1000 nM for the first, 100 to 1000 nM for the second.

First: COCCCn1c(C2CCCN(C(=O)C[C@@H](N)c3ccccc3)C2)nc2ccccc21 (stereo partly drawn) [Compound 65, (3R)-3-amino-1-(3-(1-(3-methoxypropyl)-1H-benzo[d]imidazol-2-yl)piperidin-1-yl)-3-phenylpropan-1-one]
Second: COCCCn1c([C@@H]2CCCN(C(=O)C[C@H](N)CNC(=O)c3cccnc3Oc3ccccc3)C2)nc2ccccc21 [Compound 299, N-((S)-2-amino-4-((R)-3-(1-(3-methoxypropyl)-1H-benzo[d]imidazol-2-yl)piperidin-1-yl)-4-oxobutyl)-2-phenoxynicotinamide]
The IC50 of the first is higher: > 1000 nM for the first, 100 to 1000 nM for the second. The second is the more potent here.

First: COCCCn1c([C@@H]2CCCN(C(=O)C[C@H](N)Cc3ccc4ccccc4c3)C2)nc2cc(F)ccc21 [Compound 96, (R)-3-amino-1((R)-3-(5-fluoro-1-(3-methoxypropyl)-1H-benzo[d]imidazol-2-yl)piperidin-1-yl)-4-(naphthalen-2-yl)butan-1-one]
Second: COCCCn1c([C@@H]2CCCN(C(=O)C[C@H](N)Cc3ccc4ccccc4c3)C2)nc2cc(C)ccc21 [Compound 105, (R)-3-amino-1((R)-3-(1-(3-methoxypropyl)-5-methyl-1H-benzo[d]imidazol-2-yl)piperidin-1-yl)-4-(naphthalen-2-yl)butan-1-one]
The IC50 of the first is higher: 100 to 1000 nM for the first, < 100 nM for the second. The second is the more potent here.

First: COCCCn1c([C@@H]2CCCN(C(=O)C[C@H](N)Cc3ccc4ccccc4c3)C2)nc2cccc(OC)c21 [Compound 108, (R)-3-amino-1-((R)-3-(7-methoxy-1-(3-methoxypropyl)-1H-benzo[d]imidazol-2-yl)piperidin-1-yl)-4-(naphthalen-2-yl)butan-1-one]
Second: COCCCn1c([C@@H]2CCCN(C(=O)C[C@H](N)Cc3ccc4ccccc4c3)C2)nc2cccc(C)c21 [Compound 107, (R)-3-Amino-1-((R)-3-(1-(3-methoxypropyl)-7-methyl-1H-benzo[d]imidazol-2-yl)piperidin-1-yl)-4-(naphthalen-2-yl)butan-1-one]
The IC50 of the first is lower: 100 to 1000 nM for the first, > 1000 nM for the second.

Cc1nc2ccccc2n1[C@@H]1CCCN(C(=O)C[C@H](N)Cc2ccc3ccccc3c2)C1 [Compound 245, (R)-3-amino-1((R)-3-(2-methyl-1H-benzo[d]imidazol-1-yl)piperidin-1-yl)-4-(naphthalen-2-yl)butan-1-one] and Cc1nc2ccccc2n1[C@H]1CCCN(C(=O)C[C@H](N)Cc2ccc3ccccc3c2)C1 [Compound 244, (R)-3-amino-1-((S)-3-(2-methyl-1H-benzo[d]imidazol-1-yl)piperidin-1-yl)-4-(naphthalen-2-yl)butan-1-one] cannot be ordered by IC50: > 1000 nM for the first, > 1000 nM for the second.

COCCCn1c([C@@H]2CCCN(C(=O)C[C@H](N)Cc3ccc(-c4ccc(C(=O)OC)cc4)cc3)C2)nc2ccccc21 [Compound 123, methyl 4′-((R)-2-amino-4-((R)-3-(1-(3-methoxypropyl)-1H-benzo[d]imidazol-2-yl)piperidin-1-yl)-4-oxobutyl)biphenyl-4-carboxylate] and COCCCn1c([C@@H]2CCCN(C(=O)C[C@H](N)Cc3ccc(-c4ccc(C#N)cc4)cc3)C2)nc2ccccc21 [Compound 164, 4′-((R)-2-amino-4-((R)-3-(1-(3-methoxypropyl)-1H-benzo[d]imidazol-2-yl)piperidin-1-yl)-4-oxobutyl)biphenyl-4-carbonitrile] cannot be ordered by IC50: < 100 nM for the first, < 100 nM for the second.

O=C(NC1CCCCC1)N1CCCC(c2nc3ccccc3[nH]2)C1 (stereo not drawn) [Compound 10, 3-(1H-benzo[d]imidazol-2-yl)-N-cyclohexylpiperidine-1-carboxamide] and O=C(NC(=O)N1CCCC(c2nc3ccccc3[nH]2)C1)c1ccccc1 (stereo not drawn) [Compound 5, 3-(1H-benzo[d]imidazol-2-yl)-N-benzoylpiperidine-1-carboxamide] cannot be ordered by IC50: > 1000 nM for the first, > 1000 nM for the second.

First: COCCCn1c([C@@H]2CCCN(C(=O)[C@@H]3CN(S(=O)(=O)c4ccc(N5CCCC5=O)cc4)C[C@H]3N)C2)nc2ccccc21 [Compound 382, 1-(4-((3S,4R)-3-amino-4-((R)-3-(1-(3-methoxypropyl)-1H-benzo[d]imidazol-2-yl)piperidine-1-carbonyl)pyrrolidin-1-ylsulfonyl)phenyl)pyrrolidin-2-one]
Second: COCCCn1c([C@@H]2CCCN(C(=O)C[C@H](N)Cc3ccc(-c4ccnc(F)c4)cc3)C2)nc2ccccc21 [Compound 150, (R)-3-amino-4-(4-(2-fluoropyridin-4-yl)phenyl)-1-((R)-3-(1-(3-methoxypropyl)-1H-benzo[d]imidazol-2-yl)piperidin-1-yl)butan-1-one]
The IC50 of the first is higher: 100 to 1000 nM for the first, < 100 nM for the second. The second is the more potent here.

CNC(Cc1ccccc1)C(=O)N1CCCC(c2nc3ccccc3[nH]2)C1 (stereo not drawn) [Compound 64, 1-(3-(1H-benzo[d]imidazol-2-yl)piperidin-1-yl)-2-(methylamino)-3-phenylpropan-1-one] and N[C@@H](CC(=O)N1CCCC(c2nc3ccccc3[nH]2)C1)Cc1ccc(Cl)c(Cl)c1 (stereo partly drawn) [Compound 36, (3R)-1-(3-(1H-benzo[d]imidazol-2-yl)piperidin-1-yl)-3-amino-4-(3,4-dichlorophenyl)butan-1-one] cannot be ordered by IC50: > 1000 nM for the first, > 1000 nM for the second.

COCCCn1c([C@@H]2CCCN(C(=O)C[C@H](N)CNC(=O)Nc3ccc4c(c3)OCCO4)C2)nc2ccccc21 [Compound 258, 1-((S)-2-amino-4-((R)-3-(1-(3-methoxypropyl)-1H-benzo[d]imidazol-2-yl)piperidin-1-yl)-4-oxobutyl)-3-(2,3-dihydrobenzo[b][1,4]dioxin-6-yl)urea] and COCCCn1c([C@@H]2CCCN(C(=O)C[C@H](N)Cc3ccc(-c4ccc5oc(=O)[nH]c5c4)cc3)C2)nc2c(F)cccc21 [Compound 460, 5-(4-((R)-2-amino-4-((R)-3-(4-fluoro-1-(3-methoxypropyl)-1H-benzo[d]imidazol-2-yl)piperidin-1-yl)-4-oxobutyl)phenyl)benzo[d]oxazol-2(3H)-one] cannot be ordered by IC50: < 100 nM for the first, < 100 nM for the second.

For COCCCn1c([C@@H]2CCCN(C(=O)C[C@H](N)Cc3ccc(-c4ccc(O)nc4)cc3)C2)nc2c(C)ccnc21 [Compound 504, (R)-3-amino-4-(4-(6-hydroxypyridin-3-yl)phenyl)-1-((R)-3-(3-(3-methoxypropyl)-7-methyl-3H-imidazo[4,5-b]pyridin-2-yl)piperidin-1-yl)butan-1-one], the IC50 was 100 to 1000 nM.
